Calls of active or inactive are those of the source. Cut-off read from the data, not from the text of the source, for most assays here: actives have a measured Kd and inactives only a lower limit.
Assays:
[1] = molecular target: Serine/threonine-protein kinase N2 (Homo sapiens, UniProt Q16513)
[2] = molecular target: Tyrosine-protein kinase Fer (Homo sapiens, UniProt P16591)
LIM domain kinase 1 = LIM domain kinase 1 (Homo sapiens, UniProt P53667)
[3] = molecular target: T1, Probable ATP-dependent RNA helicase DDX6 (Homo sapiens, UniProt P26196)
T1 sequence (P26196 whole entry): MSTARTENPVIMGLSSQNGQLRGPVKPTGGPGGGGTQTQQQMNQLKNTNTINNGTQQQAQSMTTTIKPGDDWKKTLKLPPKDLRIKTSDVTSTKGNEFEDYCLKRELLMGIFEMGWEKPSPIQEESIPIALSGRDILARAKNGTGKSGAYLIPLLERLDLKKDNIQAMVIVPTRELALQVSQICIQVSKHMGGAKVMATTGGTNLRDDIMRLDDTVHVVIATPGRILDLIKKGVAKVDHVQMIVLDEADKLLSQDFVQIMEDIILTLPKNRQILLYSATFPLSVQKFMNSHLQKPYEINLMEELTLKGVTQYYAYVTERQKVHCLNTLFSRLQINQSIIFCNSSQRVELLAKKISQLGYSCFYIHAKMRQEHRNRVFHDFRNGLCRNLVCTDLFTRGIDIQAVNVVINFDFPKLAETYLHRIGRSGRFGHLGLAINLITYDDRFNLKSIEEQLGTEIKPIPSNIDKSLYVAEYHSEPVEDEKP

[4] = molecular target: Serine/threonine-protein kinase SIK3 (Homo sapiens, UniProt Q9Y2K2)
[5] = molecular target: AP2-associated protein kinase 1 (Homo sapiens, UniProt Q2M2I8)
Ephrin type-B receptor 3 = molecular target: T2, Ephrin type-B receptor 3 (Homo sapiens, UniProt P54753)
T2 sequence (P54753 whole entry): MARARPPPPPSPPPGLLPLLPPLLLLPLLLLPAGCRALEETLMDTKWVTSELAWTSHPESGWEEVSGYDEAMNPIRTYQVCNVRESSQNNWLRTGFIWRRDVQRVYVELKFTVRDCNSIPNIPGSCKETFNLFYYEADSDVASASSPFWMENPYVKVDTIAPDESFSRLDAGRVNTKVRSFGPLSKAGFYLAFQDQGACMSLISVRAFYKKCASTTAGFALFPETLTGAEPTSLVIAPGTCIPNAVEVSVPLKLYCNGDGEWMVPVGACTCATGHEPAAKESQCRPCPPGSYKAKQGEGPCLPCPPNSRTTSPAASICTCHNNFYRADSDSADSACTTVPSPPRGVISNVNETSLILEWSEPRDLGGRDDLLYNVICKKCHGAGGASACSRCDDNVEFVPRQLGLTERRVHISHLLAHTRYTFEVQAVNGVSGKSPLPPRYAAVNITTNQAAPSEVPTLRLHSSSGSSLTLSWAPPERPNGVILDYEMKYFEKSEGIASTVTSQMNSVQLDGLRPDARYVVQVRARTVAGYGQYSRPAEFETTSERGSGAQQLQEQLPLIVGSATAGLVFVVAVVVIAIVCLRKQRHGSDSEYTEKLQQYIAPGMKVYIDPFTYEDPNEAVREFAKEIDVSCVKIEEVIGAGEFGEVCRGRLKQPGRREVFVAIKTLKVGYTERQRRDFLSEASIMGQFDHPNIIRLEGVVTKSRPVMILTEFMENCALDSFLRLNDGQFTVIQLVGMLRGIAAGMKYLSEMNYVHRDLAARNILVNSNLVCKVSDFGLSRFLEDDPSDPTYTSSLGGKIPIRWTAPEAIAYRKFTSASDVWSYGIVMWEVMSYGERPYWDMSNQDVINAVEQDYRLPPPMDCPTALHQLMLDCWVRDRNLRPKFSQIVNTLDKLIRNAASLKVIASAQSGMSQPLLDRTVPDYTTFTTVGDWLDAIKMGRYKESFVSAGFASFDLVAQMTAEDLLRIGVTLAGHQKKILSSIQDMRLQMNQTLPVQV

[6] = molecular target: Platelet-derived growth factor receptor beta (Homo sapiens, UniProt P09619)
[7] = molecular target: T3, Serine/threonine-protein kinase D3 (Homo sapiens, UniProt O94806)
T3 sequence (O94806 whole entry): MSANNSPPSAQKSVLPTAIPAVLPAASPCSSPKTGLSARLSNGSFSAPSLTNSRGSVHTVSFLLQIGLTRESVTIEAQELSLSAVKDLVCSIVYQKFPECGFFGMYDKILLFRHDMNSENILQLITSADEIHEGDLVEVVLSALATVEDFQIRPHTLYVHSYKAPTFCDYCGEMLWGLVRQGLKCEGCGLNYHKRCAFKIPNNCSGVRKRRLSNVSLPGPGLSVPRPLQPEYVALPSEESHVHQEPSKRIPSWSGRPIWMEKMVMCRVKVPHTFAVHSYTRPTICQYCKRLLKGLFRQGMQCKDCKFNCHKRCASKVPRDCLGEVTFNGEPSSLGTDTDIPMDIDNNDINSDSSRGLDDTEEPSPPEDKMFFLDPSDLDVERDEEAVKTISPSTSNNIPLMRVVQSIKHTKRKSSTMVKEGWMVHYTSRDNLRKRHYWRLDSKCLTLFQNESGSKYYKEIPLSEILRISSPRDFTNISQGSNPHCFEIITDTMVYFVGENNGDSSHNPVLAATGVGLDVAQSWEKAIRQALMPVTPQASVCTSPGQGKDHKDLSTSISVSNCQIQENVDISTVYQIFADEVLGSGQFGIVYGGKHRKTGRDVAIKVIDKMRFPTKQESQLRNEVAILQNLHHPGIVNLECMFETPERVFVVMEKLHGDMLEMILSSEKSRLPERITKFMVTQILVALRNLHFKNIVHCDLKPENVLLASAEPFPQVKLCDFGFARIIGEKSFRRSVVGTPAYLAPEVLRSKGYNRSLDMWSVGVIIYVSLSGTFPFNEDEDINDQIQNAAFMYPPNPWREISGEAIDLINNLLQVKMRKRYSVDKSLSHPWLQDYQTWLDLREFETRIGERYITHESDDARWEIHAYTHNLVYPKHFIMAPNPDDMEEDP

[8] = molecular target: Protein kinase C beta type (Homo sapiens, UniProt P05771)
[9] = molecular target: Ribosomal protein S6 kinase alpha-3 (Homo sapiens, UniProt P51812)
[10] = molecular target: Mitogen-activated protein kinase kinase kinase 1 (Homo sapiens, UniProt Q13233)
[11] = molecular target: Myosin light chain kinase, smooth muscle (Homo sapiens, UniProt Q15746)
[12] = molecular target: Serine/threonine-protein kinase N1 (Homo sapiens, UniProt Q16512)
Note: in the data inactive means no Kd found up to 30 µM.

Chain of LIM domain kinase 1 (P53667 whole entry, the tested form may be a part): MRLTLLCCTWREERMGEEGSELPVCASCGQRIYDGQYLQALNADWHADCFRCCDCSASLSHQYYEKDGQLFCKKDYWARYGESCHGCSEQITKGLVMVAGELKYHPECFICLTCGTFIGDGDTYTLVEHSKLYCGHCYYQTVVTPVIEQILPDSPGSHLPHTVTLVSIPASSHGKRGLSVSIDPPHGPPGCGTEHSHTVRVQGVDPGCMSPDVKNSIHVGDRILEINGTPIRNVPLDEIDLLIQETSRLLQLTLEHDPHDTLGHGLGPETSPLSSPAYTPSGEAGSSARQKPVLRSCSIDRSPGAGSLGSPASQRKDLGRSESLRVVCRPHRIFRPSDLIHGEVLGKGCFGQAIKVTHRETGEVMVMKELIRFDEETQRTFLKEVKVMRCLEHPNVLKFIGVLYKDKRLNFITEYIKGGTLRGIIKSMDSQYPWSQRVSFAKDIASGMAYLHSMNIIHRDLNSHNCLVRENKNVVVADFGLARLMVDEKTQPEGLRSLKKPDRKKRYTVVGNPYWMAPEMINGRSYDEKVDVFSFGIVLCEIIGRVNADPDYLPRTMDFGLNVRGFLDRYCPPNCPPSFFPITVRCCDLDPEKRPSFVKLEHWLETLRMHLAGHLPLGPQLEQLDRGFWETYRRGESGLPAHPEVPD
Chain of Mitogen-activated protein kinase kinase kinase 1 (Q13233 whole entry): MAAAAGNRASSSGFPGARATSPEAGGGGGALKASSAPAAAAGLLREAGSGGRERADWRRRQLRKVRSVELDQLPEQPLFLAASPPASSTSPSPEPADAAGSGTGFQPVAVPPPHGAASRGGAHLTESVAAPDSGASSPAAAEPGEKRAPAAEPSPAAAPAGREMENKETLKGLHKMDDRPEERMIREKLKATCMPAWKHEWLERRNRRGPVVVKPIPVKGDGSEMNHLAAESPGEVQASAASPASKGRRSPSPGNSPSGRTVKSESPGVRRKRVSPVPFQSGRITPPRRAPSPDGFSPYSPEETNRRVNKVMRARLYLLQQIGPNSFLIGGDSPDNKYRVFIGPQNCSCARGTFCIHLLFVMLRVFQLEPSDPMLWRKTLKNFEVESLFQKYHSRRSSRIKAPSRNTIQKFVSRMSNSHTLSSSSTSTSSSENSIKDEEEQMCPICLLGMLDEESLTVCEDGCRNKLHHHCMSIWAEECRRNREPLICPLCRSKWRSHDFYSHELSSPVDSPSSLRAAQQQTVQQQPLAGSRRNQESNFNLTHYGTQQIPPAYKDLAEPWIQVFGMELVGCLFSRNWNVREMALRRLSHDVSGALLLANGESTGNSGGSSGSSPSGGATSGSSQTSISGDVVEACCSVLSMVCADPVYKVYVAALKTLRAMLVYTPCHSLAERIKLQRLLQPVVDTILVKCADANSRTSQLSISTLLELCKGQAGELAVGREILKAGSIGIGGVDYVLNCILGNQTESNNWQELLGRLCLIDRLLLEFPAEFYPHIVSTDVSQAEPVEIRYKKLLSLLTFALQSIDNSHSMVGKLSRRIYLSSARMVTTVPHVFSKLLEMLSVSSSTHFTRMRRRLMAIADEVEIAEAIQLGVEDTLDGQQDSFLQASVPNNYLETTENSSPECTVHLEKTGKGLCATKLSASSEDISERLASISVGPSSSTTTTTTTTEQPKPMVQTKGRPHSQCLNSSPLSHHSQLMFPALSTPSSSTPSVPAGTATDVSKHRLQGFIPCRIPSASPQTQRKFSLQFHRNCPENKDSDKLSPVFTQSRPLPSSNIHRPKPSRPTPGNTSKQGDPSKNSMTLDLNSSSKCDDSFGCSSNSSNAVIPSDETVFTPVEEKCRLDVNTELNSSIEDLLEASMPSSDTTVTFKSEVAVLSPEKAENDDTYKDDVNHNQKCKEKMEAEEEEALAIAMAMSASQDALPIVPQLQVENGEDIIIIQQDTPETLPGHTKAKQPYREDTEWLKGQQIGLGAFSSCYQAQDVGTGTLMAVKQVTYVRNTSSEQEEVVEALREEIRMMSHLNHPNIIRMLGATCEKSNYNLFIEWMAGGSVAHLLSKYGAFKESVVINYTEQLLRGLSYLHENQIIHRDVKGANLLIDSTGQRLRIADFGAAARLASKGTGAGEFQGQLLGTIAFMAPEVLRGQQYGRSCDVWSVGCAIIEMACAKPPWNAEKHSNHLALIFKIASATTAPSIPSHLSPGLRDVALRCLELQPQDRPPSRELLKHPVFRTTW
Chain of Serine/threonine-protein kinase SIK3 (Q9Y2K2 whole entry): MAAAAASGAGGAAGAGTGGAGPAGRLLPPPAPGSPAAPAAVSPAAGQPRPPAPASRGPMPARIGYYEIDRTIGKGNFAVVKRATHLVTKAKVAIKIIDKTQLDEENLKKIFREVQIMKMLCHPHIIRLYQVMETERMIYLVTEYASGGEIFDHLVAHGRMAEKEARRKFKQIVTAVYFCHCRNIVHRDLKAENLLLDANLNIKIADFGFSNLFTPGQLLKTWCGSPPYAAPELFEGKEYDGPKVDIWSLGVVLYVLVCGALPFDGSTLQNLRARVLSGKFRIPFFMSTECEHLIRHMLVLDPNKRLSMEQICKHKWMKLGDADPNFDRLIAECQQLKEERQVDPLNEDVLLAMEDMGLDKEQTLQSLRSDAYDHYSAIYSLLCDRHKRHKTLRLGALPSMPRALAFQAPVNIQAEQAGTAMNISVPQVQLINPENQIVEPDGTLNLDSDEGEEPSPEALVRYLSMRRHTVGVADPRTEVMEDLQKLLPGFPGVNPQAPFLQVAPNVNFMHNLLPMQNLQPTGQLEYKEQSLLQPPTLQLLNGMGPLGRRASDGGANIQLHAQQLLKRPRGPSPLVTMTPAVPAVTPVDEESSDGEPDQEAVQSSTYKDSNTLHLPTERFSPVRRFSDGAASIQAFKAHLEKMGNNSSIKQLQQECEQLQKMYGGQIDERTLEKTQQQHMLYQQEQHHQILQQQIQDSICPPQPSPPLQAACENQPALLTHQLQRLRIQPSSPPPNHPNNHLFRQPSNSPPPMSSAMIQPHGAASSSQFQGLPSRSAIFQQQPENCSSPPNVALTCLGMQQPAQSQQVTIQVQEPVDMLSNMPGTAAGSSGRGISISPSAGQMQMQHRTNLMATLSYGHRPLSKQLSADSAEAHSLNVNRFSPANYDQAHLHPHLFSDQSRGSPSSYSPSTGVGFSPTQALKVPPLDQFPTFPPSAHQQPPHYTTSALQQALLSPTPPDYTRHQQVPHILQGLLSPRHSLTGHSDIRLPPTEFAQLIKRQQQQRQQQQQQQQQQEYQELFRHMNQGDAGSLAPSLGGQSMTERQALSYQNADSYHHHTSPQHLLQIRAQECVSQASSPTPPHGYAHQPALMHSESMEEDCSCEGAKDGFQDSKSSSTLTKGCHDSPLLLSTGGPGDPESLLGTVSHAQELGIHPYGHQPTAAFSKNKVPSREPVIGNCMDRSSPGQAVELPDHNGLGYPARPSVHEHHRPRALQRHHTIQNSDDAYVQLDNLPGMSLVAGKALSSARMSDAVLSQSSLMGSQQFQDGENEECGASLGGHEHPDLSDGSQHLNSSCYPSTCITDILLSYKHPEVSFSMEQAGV
Chain of Tyrosine-protein kinase Fer (P16591 whole entry, the tested form may be a part): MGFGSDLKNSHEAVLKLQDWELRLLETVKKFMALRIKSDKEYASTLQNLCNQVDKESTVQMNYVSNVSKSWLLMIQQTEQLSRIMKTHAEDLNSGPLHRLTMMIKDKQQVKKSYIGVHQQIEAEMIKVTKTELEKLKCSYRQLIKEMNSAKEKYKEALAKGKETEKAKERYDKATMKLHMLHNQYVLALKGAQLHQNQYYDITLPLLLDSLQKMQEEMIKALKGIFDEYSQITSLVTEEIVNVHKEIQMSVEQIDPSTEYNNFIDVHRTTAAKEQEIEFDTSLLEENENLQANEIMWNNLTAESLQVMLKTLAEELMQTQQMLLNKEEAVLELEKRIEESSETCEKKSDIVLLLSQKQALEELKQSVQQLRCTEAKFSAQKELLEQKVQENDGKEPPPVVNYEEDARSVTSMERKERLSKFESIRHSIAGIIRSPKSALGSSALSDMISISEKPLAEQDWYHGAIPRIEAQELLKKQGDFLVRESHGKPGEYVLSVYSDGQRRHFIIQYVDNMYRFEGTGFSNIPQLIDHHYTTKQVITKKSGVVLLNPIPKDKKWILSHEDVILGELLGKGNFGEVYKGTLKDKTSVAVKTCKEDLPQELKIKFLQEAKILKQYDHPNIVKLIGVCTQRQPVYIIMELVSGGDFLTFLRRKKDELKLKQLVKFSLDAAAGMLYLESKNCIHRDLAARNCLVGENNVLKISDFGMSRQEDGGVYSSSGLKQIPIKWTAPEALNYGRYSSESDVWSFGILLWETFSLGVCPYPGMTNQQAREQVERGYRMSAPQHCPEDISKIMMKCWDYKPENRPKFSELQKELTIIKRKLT
Chain of Ribosomal protein S6 kinase alpha-3 (P51812 whole entry): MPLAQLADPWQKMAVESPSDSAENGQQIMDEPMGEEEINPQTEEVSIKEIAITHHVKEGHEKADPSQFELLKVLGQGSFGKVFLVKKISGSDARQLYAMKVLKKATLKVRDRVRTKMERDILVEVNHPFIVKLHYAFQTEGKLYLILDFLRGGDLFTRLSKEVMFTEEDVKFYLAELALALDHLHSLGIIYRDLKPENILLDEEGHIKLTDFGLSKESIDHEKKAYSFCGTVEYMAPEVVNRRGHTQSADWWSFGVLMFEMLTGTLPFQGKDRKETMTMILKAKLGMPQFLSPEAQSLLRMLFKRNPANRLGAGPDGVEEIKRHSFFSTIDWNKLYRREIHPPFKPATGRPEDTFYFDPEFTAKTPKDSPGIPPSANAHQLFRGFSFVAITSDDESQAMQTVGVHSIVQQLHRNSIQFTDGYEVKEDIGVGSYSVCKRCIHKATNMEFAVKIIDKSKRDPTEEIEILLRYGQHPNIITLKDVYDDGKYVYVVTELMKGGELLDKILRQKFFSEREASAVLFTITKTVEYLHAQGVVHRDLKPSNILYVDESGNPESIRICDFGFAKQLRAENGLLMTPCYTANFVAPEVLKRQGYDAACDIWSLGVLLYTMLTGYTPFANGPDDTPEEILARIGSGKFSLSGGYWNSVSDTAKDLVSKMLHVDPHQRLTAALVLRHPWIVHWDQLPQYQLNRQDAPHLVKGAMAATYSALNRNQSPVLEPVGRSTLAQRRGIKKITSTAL

| SMILES | Kd [1] | Kd [2] | Kd (LIM domain kinase 1) | Kd [3] | Kd [4] | Kd [5] | Kd (Ephrin type-B receptor 3) | Kd [6] | Kd [7] | Kd [8] | Kd [9] | Kd [10] | Kd [11] | Kd [12] |
| --- | --- | --- | --- | --- | --- | --- | --- | --- | --- | --- | --- | --- | --- | --- |
| C[C@@H]1COC(Nc2ccc3ncnc(Nc4ccc(OCc5nccs5)c(Cl)c4)c3c2)=N1 [VARLITINIB] | > 30 µM (inactive) | > 30 µM (inactive) | > 30 µM (inactive) | > 30 µM (inactive) | > 30 µM (inactive) | > 30 µM (inactive) | > 30 µM (inactive) | > 30 µM (inactive) | > 30 µM (inactive) | > 30 µM (inactive) | > 30 µM (inactive) | > 30 µM (inactive) | > 30 µM (inactive) | > 30 µM (inactive) |
| Cc1c(NC(=O)OC[C@@H]2COCCN2)cn2ncnc(Nc3ccc4c(cnn4Cc4cccc(F)c4)c3)c12 [AC-480] | > 30 µM (inactive) | > 30 µM (inactive) | > 30 µM (inactive) | > 30 µM (inactive) | > 30 µM (inactive) | > 30 µM (inactive) | > 30 µM (inactive) | > 30 µM (inactive) | > 30 µM (inactive) | > 30 µM (inactive) | > 30 µM (inactive) | > 30 µM (inactive) | > 30 µM (inactive) | > 30 µM (inactive) |
| COc1ccc(-c2ccc3ncc4c(c3c2)n(-c2ccc(N3CCNCC3)c(C(F)(F)F)c2)c(=O)n4C)cn1 [BGT-226 FREE BASE] | > 30 µM (inactive) | > 30 µM (inactive) | > 30 µM (inactive) | > 30 µM (inactive) | > 30 µM (inactive) | > 30 µM (inactive) | > 30 µM (inactive) | > 30 µM (inactive) | > 30 µM (inactive) | > 30 µM (inactive) | > 30 µM (inactive) | > 30 µM (inactive) | > 30 µM (inactive) | > 30 µM (inactive) |
| Cc1cc(Nc2nc(N[C@@H](C)c3ncc(F)cn3)ncc2Cl)n[nH]1 [AZD-1480] | > 30 µM (inactive) | 0.517 µM (active) | > 30 µM (inactive) | > 30 µM (inactive) | > 30 µM (inactive) | > 30 µM (inactive) | > 30 µM (inactive) | > 30 µM (inactive) | > 30 µM (inactive) | > 30 µM (inactive) | > 30 µM (inactive) | > 30 µM (inactive) | > 30 µM (inactive) | > 30 µM (inactive) |
| CCc1cc2c(cc1N1CCC(N3CCOCC3)CC1)C(C)(C)c1[nH]c3cc(C#N)ccc3c1C2=O [ALECTINIB] | > 30 µM (inactive) | 3.76 µM (active) | > 30 µM (inactive) | > 30 µM (inactive) | > 30 µM (inactive) | > 30 µM (inactive) | > 30 µM (inactive) | > 30 µM (inactive) | > 30 µM (inactive) | > 30 µM (inactive) | > 30 µM (inactive) | > 30 µM (inactive) | > 30 µM (inactive) | > 30 µM (inactive) |
| FC(F)(F)c1ccc(CNc2ccc(Cc3c[nH]c4ncc(Cl)cc34)cn2)cn1 [PEXIDARTINIB] | > 30 µM (inactive) | > 30 µM (inactive) | > 30 µM (inactive) | > 30 µM (inactive) | > 30 µM (inactive) | 13.7 µM (active) | > 30 µM (inactive) | > 30 µM (inactive) | > 30 µM (inactive) | > 30 µM (inactive) | > 30 µM (inactive) | > 30 µM (inactive) | > 30 µM (inactive) | > 30 µM (inactive) |
| O=S(=O)(c1cccc2c(O)nccc12)N1CCCNCC1 [HYDROXYFASUDIL] | 2.26 µM (active) | > 30 µM (inactive) | > 30 µM (inactive) | > 30 µM (inactive) | > 30 µM (inactive) | > 30 µM (inactive) | > 30 µM (inactive) | > 30 µM (inactive) | > 30 µM (inactive) | > 30 µM (inactive) | > 30 µM (inactive) | > 30 µM (inactive) | > 30 µM (inactive) | 2.92 µM (active) |

Source: ChEMBL document CHEMBL3991601, “The target landscape of clinical kinase drugs” (Science, 2017)
